Source: patent US8471005B2 (Cephalon, Inc., priority 2008, dated 2013)
Like-named read-outs stand apart in the source and are kept apart here.

Assays:
[1] = biological target: T1, JAK2 (Homo sapiens, UniProt O60674); experiment: Recombinant Human JAK2 Kinase Assay (TRF); assay type: biochemical; details: read-out: JAK2 Potency
T1 construct: host or cells: baculovirus expression system
How it was run: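 Baculovirus-expressed JAK2 (15 ng/ml) phosphorylated a biotinylated 15-mer peptide captured on Neutravidin-coated plates, in 20 mM HEPES pH 7.2 with 0.2 μM ATP, 1 mM MnCl2, 0.1% BSA and 2.5% DMSO. Reaction ran 20 min at room temperature; phosphopeptide was detected by time-resolved fluorescence with Eu-N1-labelled PY100 antibody.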

[2] = biological target: T2, ALK (Homo sapiens, UniProt Q9UM73); experiment: ALK Kinase Assay (ELISA/TRF, PLC-γ substrate); assay type: biochemical; details: read-out: ALK Potency
T2 construct: host or cells: baculovirus expression system
How it was run: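 IC50 values derive from percent inhibition plotted against log10 compound concentration and fitted to a variable-slope sigmoidal equation. The underlying reaction used 30 ng/ml ALK acting on immobilized PLC-γ (10 μg/mL in TBS) at 37° C for 15 minutes, read with Eu-N1 PT66 antibody.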

[3] = JAK2 kinase inhibition, 0.2 μM ATP
[4] = ALK kinase inhibition, 1 μM ATP

T1 sequence (O60674 whole entry): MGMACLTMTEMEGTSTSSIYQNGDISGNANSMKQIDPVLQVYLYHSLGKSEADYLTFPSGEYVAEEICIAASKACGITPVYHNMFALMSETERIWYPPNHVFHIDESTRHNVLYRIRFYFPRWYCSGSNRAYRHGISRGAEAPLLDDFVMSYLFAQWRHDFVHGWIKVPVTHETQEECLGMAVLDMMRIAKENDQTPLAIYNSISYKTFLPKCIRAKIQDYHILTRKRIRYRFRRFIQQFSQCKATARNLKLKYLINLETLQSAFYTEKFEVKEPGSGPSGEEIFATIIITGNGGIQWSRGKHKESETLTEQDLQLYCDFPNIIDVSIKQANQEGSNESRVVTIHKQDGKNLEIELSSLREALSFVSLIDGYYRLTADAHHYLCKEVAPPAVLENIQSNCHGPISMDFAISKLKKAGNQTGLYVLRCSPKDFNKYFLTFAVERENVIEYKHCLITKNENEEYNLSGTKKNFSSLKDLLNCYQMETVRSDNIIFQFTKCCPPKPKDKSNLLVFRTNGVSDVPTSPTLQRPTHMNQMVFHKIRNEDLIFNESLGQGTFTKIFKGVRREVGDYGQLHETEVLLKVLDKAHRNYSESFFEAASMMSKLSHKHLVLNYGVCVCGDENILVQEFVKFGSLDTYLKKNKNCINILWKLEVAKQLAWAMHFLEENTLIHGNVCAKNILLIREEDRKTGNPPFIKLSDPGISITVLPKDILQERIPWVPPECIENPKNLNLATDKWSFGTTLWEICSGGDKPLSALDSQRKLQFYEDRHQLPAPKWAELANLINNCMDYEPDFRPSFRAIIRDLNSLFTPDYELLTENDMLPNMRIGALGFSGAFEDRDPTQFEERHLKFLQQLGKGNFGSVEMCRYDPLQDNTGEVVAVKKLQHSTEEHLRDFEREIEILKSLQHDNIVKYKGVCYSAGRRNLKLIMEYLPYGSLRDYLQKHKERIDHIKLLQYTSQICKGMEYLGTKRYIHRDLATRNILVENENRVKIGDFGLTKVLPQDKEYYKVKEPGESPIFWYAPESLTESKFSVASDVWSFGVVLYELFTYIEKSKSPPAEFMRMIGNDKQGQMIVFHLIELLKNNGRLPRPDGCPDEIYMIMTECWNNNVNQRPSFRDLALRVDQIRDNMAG
T2 sequence (Q9UM73 19-1620): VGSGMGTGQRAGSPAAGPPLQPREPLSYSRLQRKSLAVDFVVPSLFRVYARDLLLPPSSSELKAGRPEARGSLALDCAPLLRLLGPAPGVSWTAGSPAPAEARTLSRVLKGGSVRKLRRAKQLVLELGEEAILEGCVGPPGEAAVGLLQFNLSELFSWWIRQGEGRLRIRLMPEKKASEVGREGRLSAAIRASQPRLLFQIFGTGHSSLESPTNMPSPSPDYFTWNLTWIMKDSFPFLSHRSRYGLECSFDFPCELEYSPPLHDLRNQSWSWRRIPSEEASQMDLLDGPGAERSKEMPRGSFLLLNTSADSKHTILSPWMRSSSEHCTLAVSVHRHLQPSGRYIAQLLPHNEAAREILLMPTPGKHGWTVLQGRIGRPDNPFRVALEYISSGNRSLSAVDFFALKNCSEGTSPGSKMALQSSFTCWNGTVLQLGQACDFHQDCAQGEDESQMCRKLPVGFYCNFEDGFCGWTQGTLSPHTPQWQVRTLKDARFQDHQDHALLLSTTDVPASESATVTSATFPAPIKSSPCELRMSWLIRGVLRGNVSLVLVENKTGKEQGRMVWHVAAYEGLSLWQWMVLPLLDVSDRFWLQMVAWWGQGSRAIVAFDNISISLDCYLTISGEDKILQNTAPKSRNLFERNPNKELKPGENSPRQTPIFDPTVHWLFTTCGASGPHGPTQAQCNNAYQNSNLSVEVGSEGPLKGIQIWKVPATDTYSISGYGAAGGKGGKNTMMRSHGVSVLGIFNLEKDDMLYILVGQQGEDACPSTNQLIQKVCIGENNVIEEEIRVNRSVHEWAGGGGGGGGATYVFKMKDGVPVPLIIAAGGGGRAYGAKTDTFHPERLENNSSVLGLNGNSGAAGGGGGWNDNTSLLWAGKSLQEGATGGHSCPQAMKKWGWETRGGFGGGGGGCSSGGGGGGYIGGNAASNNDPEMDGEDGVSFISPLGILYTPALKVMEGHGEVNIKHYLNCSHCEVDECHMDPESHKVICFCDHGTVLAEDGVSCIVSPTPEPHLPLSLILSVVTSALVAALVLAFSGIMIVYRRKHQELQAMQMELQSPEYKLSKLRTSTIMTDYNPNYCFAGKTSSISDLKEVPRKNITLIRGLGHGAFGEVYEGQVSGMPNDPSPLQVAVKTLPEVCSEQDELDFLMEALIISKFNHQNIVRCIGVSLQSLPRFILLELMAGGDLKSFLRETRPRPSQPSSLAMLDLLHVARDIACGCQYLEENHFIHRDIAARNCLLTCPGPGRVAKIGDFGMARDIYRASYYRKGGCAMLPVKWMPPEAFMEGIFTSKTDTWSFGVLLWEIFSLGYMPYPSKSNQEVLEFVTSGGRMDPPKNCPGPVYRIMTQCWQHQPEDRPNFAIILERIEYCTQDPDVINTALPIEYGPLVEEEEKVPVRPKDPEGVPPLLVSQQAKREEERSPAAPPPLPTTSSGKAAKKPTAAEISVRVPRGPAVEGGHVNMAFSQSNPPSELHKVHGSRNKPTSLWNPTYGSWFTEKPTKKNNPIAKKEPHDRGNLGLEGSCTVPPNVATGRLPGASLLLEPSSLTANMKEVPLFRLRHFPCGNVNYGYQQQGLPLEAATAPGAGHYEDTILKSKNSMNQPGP

Row | Compound | IC50 ([1]; JAK2 Kinase Inhibition) | IC50 ([2]; ALK Kinase Inhibition) | IC50 [1, 3] | IC50 [2, 4]
1 | COc1ccccc1-c1ccc2cnc(Nc3ccc(N4CCN(C)CC4)nc3)nn12 [Example 1108, [7-(2-Methoxy-phenyl)-pyrrolo[2,1-f][1,2,4]triazin-2-yl]-[6-(4-methyl-piperazin-1-yl)-pyridin-3-yl]-amine] |  |  | < 100 nM | 100 to 1000 nM
2 | CN1CCN(c2ccc(Nc3ncc4ccc(-c5cccc(NS(=O)(=O)C6CC6)c5)n4n3)cc2)CC1 [Example 413, Cyclopropanesulfonic acid (3-{2-[4-(4-methyl-piperazin-1-yl)-phenylamino]-pyrrolo[2,1-f][1,2,4]triazin-7-yl}-phenyl)-amide] | < 100 nM | 100 to 1000 nM |  | 
3 | CS(=O)(=O)c1ccc(-c2ccc3cnc(Nc4ccc5c(c4)CCC(N4CCOCC4)CC5)nn23)cc1 (stereo not shown) [Example 612, [7-(4-Methanesulfonyl-phenyl)-pyrrolo[2,1-f][1,2,4]triazin-2-yl]-(7-morpholin-4-yl-6,7,8,9-tetrahydro-5H-benzocyclohepten-2-yl)-amine] |  |  | < 100 nM | 100 to 1000 nM
4 | COc1cc2c(cc1Nc1ncc3ccc(-c4ccccc4OC)n3n1)CN(C1COC1)C2 [Example 850, (6-Methoxy-2-oxetan-3-yl-2,3-dihydro-1H-isoindol-5-yl)-[7-(2-methoxy-phenyl)-pyrrolo[2,1-f][1,2,4]triazin-2-yl]-amine] |  |  | < 100 nM | < 100 nM
5 | COc1cc(N2CCC(N3CCOCC3)CC2)c(C)cc1Nc1ncc2ccc(-c3ccccc3OC)n2n1 [Example 539] |  |  | < 100 nM | < 100 nM
6 | CN(C)S(=O)(=O)c1ccc(-c2ccc3cnc(Nc4ccc(N5CCOCC5)cc4)nn23)cc1 [Example 71, N,N-Dimethyl-4-[2-(4-morpholin-4-yl-phenylamino)-pyrrolo[2,1-f][1,2,4]triazin-7-yl]-benzenesulfonamide] | < 100 nM | > 10000 nM |  | 
7 | CCN1CCN(C(=O)c2ccc(Nc3ncc4c(-c5ccc(F)cc5)ccn4n3)cc2)CC1 [Example 727, (4-Ethyl-piperazin-1-yl)-{4-[5-(4-fluoro-phenyl)-pyrrolo[2,1-f][1,2,4]triazin-2-ylamino]-phenyl}-methanone] |  |  | > 10000 nM | > 10000 nM
8 | O=C(c1cccc(Nc2ncc3ccc(-c4cccc(Cl)c4)n3n2)c1)N1CCOCC1 [Example 329, {3-[7-(3-Chloro-phenyl)-pyrrolo[2,1-f][1,2,4]triazin-2-ylamino]-phenyl}-morpholin-4-yl-methanone] | < 100 nM | 100 to 1000 nM |  | 
9 | COc1ccccc1NCc1ccc2cnc(Nc3ccc(N4CCN(C)CC4)cc3)nn12 [Example 365, {7-[(2-Methoxy-phenylamino)-methyl]-pyrrolo[2,1-f][1,2,4]triazin-2-yl}-[4-(4-methyl-piperazin-1-yl)-phenyl]-amine] | < 100 nM | 1000 to 10000 nM |  | 
10 | COc1ccccc1-c1cc(Br)n2nc(Nc3ccc(N4CCN(C)CC4)cc3)ncc12 [Example 102, [7-Bromo-5-(2-methoxy-phenyl)-pyrrolo[2,1-f][1,2,4]triazin-2-yl]-[4-(4-methyl-piperazin-1-yl)-phenyl]-amine] | 1000 to 10000 nM | > 10000 nM |  | 
11 | C[C@H](O)CN1CCN(c2ccc(Nc3ncc4ccc(-c5cccc(Cl)c5)n4n3)cc2)CC1 [Example 204, (S)-1-(4-{4-[7-(3-Chloro-phenyl)-pyrrolo[2,1-f][1,2,4]triazin-2-ylamino]-phenyl}-piperazin-1-yl)-propan-2-ol] | < 100 nM | < 100 nM |  | 
12 | CC(C)(C)OC(=O)N1CCC=C(c2ccc3cnc(Nc4ccc(C5CCN(CC(N)=O)CC5)cc4)nn23)C1 [Example 675, 5-{2-[4-(1-Carbamoylmethyl-piperidin-4-yl)-phenylamino]-pyrrolo[2,1-f][1,2,4]triazin-7-yl}-3,6-dihydro-2H-pyridine-1-carboxylic acid tert-butyl ester] |  |  | < 100 nM | 1000 to 10000 nM
13 | COc1cc2c(cc1Nc1ncc3ccc(-c4ccccc4OC)n3n1)CCN(C[C@@H](C)O)CC2 [Example 991, (R)-1-{7-Methoxy-8-[7-(2-methoxy-phenyl)-pyrrolo[2,1-f][1,2,4]triazin-2-ylamino]-1,2,4,5-tetrahydro-benzo[d]azepin-3-yl}-propan-2-ol] |  |  | 100 to 1000 nM | < 100 nM
14 | COc1c(Nc2ncc3ccc(-c4ccccc4N(C)S(C)(=O)=O)n3n2)cccc1C1CCN(C)CC1 [Example 776, N-(2-{2-[2-Methoxy-3-(1-methyl-piperidin-4-yl)-phenylamino]-pyrrolo [2,1-f][1,2,4]triazin-7-yl}-phenyl)-N-methyl-methanesulfonamide] |  |  | < 100 nM | < 100 nM
15 | COc1ccccc1-c1ccc2cnc(Nc3ccc(N4CCCC4)cc3)nn12 [Example 169, [7-(2-Methoxy-phenyl)-pyrrolo[2,1-f][1,2,4]triazin-2-yl]-(4-pyrrolidin-1-yl-phenyl)-amine] | < 100 nM | 100 to 1000 nM |  | 
16 | COc1cc(N2CCC(N(C)C)C2)ccc1Nc1ncc2ccc(-c3ccccc3OC)n2n1 (stereo not shown) [Example 763, [4-(3-Dimethylamino-pyrrolidin-1-yl)-2-methoxy-phenyl]-[7-(2-methoxy-phenyl)-pyrrolo[2,1-f][1,2,4]triazin-2-yl]-amine] |  |  | < 100 nM | < 100 nM
17 | CCN1CCN(C(=O)c2ccc(Nc3ncc4c(-c5ccccc5OC)ccn4n3)cc2)CC1 [Example 723, (4-Ethyl-piperazin-1-yl)-{4-[5-(2-methoxy-phenyl)-pyrrolo[2,1-f][1,2,4]triazin-2-ylamino]-phenyl}-methanone] |  |  | 100 to 1000 nM | > 10000 nM
18 | COCCNc1cccc(-c2ccc3cnc(Nc4cccc(NC(C)=O)c4)nn23)c1 [Example 988, N-(3-{7-[3-(2-Methoxy-ethylamino)-phenyl]-pyrrolo[2,1-f][1,2,4]triazin-2-ylamino}-phenyl)-acetamide] |  |  | < 100 nM | 1000 to 10000 nM

The remaining lines, values ahead:

Row | IC50 ([1]; JAK2 Kinase Inhibition) | IC50 ([2]; ALK Kinase Inhibition) | IC50 [1, 3] | IC50 [2, 4] | Compound
19 | < 100 nM | 100 to 1000 nM |  |  | COCc1cccc(-c2ccc3cnc(Nc4ccc(N5CCN(C)CC5)cc4)nn23)c1 [Example 1503, [7-(3-Methoxymethyl-phenyl)-pyrrolo[2,1-f][1,2,4]triazin-2-yl]-[4-(4-methyl-piperazin-1-yl)-phenyl]-amine]
20 |  |  | < 100 nM | 100 to 1000 nM | CN1CCN(c2ccc(Nc3ncc4ccc(-c5ccccc5OCC(=O)O)n4n3)cc2)CC1 [Example 1182, (2-{2-[4-(4-Methyl-piperazin-1-yl)-phenylamino]-pyrrolo[2,1-f][1,2,4]triazin-7-yl}-phenoxy)-acetic acid]
21 |  |  | < 100 nM | 100 to 1000 nM | CCN(CC)C1CCN(c2ccc(Nc3ncc4ccc(-c5cccc(NS(=O)(=O)C(C)(C)C)c5)n4n3)cc2)CC1 [Example 1205, 2-Methyl-propane-2-sulfonic acid (3-{2-[4-(4-diethylamino-piperidin-1-yl)-phenylamino]-pyrrolo[2,1-f][1,2,4]triazin-7-yl}-phenyl)-amide]
22 |  |  | < 100 nM | 1000 to 10000 nM | CN(c1ccccc1-c1ccc2cnc(Nc3ccc4cnn(CCN5CCOCC5)c4c3)nn12)S(C)(=O)=O [Example 1334, N-Methyl-N-(2-{2-[1-(2-morpholin-4-yl-ethyl)-1H-indazol-6-ylamino]-pyrrolo[2,1-f][1,2,4]triazin-7-yl}-phenyl)-methanesulfonamide]
23 |  |  | < 100 nM | 100 to 1000 nM | CC(C)(C)NS(=O)(=O)c1cccc(-c2ccc3cnc(Nc4ccc5c(c4)ncn5CCN4CCOCC4)nn23)c1 [Example 1325, N-tert-Butyl-3-{2-[1-(2-morpholin-4-yl-ethyl)-1H-benzimidazol-5-ylamino]-pyrrolo[2,1-f][1,2,4]triazin-7-yl}-benzenesulfonamide]
24 |  |  | < 100 nM | < 100 nM | N#CCCc1cccc(-c2ccc3cnc(Nc4ccc(N5CCN(CCO)CC5)cc4)nn23)c1 [Example 1151, 3-[3-(2-{4-[4-(2-Hydroxy-ethyl)-piperazin-1-yl]-phenylamino}-pyrrolo[2,1-f][1,2,4]triazin-7-yl)-phenyl]-propionitrile]
25 | < 100 nM | < 100 nM |  |  | COc1cc(N2CCC(N3CCOCC3)CC2)ccc1Nc1ncc2ccc(-c3ccccc3OC(C)C)n2n1 [Example 1451, [7-(2-Isopropoxy-phenyl)-pyrrolo[2,1-f][1,2,4]triazin-2-yl]-[2-methoxy-4-(4-morpholin-4-yl-piperidin-1-yl)-phenyl]-amine]
26 | < 100 nM | 1000 to 10000 nM |  |  | COc1ccc(-c2ccc3cnc(Nc4cccc(C5CN(C)CCN5C)c4)nn23)cn1 (stereo not shown) [Example 1519, [3-(1,4-Dimethyl-piperazin-2-yl)-phenyl]-[7-(6-methoxy-pyridin-3-yl)-pyrrolo[2,1-f][1,2,4]triazin-2-yl]-amine]
27 | 100 to 1000 nM | 100 to 1000 nM |  |  | COc1cc(N2CCC(N3CCOCC3)CC2)ccc1Nc1ncc2ccc(-c3ccccc3NS(C)(=O)=O)n2n1 [Example 1450, N-(2-{2-[2-Methoxy-4-(4-morpholin-4-yl-piperidin-1-yl)-phenylamino]-pyrrolo[2,1-f][1,2,4]triazin-7-yl}-phenyl)-methanesulfonamide]
28 |  |  | < 100 nM | 100 to 1000 nM | Cc1nn(C)cc1-c1ccc2cnc(Nc3ccc(N4CCN(C)CC4)cc3)nn12 [Example 1229, [7-(1,3-Dimethyl-1H-pyrazol-4-yl)-pyrrolo[2,1-f][1,2,4]triazin-2-yl]-[4-(4-methyl-piperazin-1-yl)-phenyl]-amine]
29 |  |  | < 100 nM | 100 to 1000 nM | CN1CCN(c2ccc(Nc3ncc4ccc(-c5ccccc5N(C)S(C)(=O)=O)n4n3)nc2)CC1 [Example 1197, N-Methyl-N-(2-{2-[5-(4-methyl-piperazin-1-yl)-pyridin-2-ylamino]-pyrrolo[2,1-f][1,2,4]triazin-7-yl}-phenyl)-methanesulfonamide]
